Each structure is given as a SMILES string. In brackets after ≈: the same amount, converted by molar mass.

The solubility (kinetic) is the concentration staying in solution when a stock, usually in DMSO, is diluted into the medium.

The conditions of this series: buffer; pH 7.4; 200.0 µM.
For the compound `Cc1cccc(NC(=S)NCC(C)CSc2ccc(Cl)cc2)c1` (stereo not given), the kinetic solubility was less than 0.4 µg/mL.

In turn, `CC(C)C(=O)Nc1ccccc1Cc1ccccc1` gave a solubility (kinetic) of 10.7 µg/mL (≈ 42.2 µM).

Turning to `O=C(O)CCCC(=O)Nc1ccc(Oc2ncnc3cc(Cl)ccc23)nc1`, the solubility (kinetic) was more than 58 µg/mL.

Turning to `Cc1ccc(-n2c(SCC(=O)NCC3CCCO3)nc3ccccc3c2=O)cc1` (stereo not given), the solubility (kinetic) worked out at 32.4 µg/mL (≈ 79.1 µM).

`C=CCOc1ccc(C(=O)Nc2ccc3c(c2)n(C)c(=O)n3C)cc1`: the kinetic solubility stood at 11.4 µg/mL (≈ 33.8 µM).

In turn, `O=C(COC(=O)COc1ccccc1)Nc1cccnc1Cl` came in with a kinetic solubility of more than 48.1 µg/mL.

As for `O=C(O)c1ccc(S(=O)(=O)N2CCSCC2)cc1`, the kinetic solubility amounted to 42.9 µg/mL (≈ 149 µM).

In turn, `COc1cccc(/C=C(\C#N)c2nc3ccccc3[nH]2)c1OCC(=O)O` registered a kinetic solubility of more than 52.4 µg/mL.

`O=C(c1cccc2nc3ccccc3nc12)N1CCOCC1`: the solubility (kinetic) came to 40.9 µg/mL (≈ 139 µM).

Consider `Cc1c(Cl)ccc2c(C(N)=O)cc(-c3ccccn3)nc12`, for which the kinetic solubility is 0.2 µg/mL (≈ 0.672 µM).

`COc1ccc(N=Cc2c(OC)ccc3ccccc23)cc1`: the kinetic solubility was 33.9 µg/mL (≈ 116 µM).

Consider `Cc1cc(C)cc(N(CC(=O)N2CCCC2)S(C)(=O)=O)c1`, for which the solubility (kinetic) is more than 46.6 µg/mL.

Compound `Cc1[nH]c(=S)c(C#N)c(C)c1Cc1ccc(Cl)cc1Cl` returned a kinetic solubility of 2.2 µg/mL (≈ 6.81 µM).

The compound `O=C(O)c1cccc(S(=O)(=O)Nc2ccc3c(c2)CCC3)c1` registered a kinetic solubility of more than 47.6 µg/mL.

For the compound `COc1ccc(N2C(=O)CC(NCC#N)C2=O)cc1` (stereo not given), the kinetic solubility amounted to 33.1 µg/mL (≈ 128 µM).

`COc1ccc(NC(=O)CNC(=O)C2CCCCC2)cc1OC` came in with a solubility (kinetic) of more than 48.1 µg/mL.

Take `CC(C)N(C(=O)Cn1c(=O)oc2ccccc21)c1ccccc1`: the solubility (kinetic) was 0.7 µg/mL (≈ 2.26 µM).

For `COC(=O)[C@H](Cc1ccccc1)NC(=O)N1CCCCCC1`, the kinetic solubility is more than 45.7 µg/mL.

On to `Cc1ccc(C(=O)CCC(=O)NC2=NCCS2)cc1`, for which the solubility (kinetic) came out at 10.8 µg/mL (≈ 39.1 µM).

`CCc1c(C)sc(NC(=S)Nc2nc(C)cc(C)n2)c1C(=O)OC` returned a kinetic solubility of less than 0.2 µg/mL.

As to `CC1CCN(c2nc3ccccn3c(=O)c2C=O)CC1`, the kinetic solubility was more than 40.7 µg/mL.

The compound `CCSc1ncc(Cl)c(C(=O)Nc2cc(C)ccc2C)n1` came in with a solubility (kinetic) of less than 0.2 µg/mL.

In turn, `COc1ccccc1CC(=O)N1CCN(c2ccc(F)cc2)CC1` showed a kinetic solubility of more than 49.3 µg/mL.

Compound `CCN(c1cccc(C)c1)S(=O)(=O)c1ccc2c(c1)oc(=O)n2C` came in with a kinetic solubility of 2.7 µg/mL (≈ 7.79 µM).

For the compound `Cn1c(=O)c2ccccc2n(CC(=O)NCCC2=CCCCC2)c1=O`, the solubility (kinetic) was 14.6 µg/mL (≈ 42.8 µM).

The compound `COc1cccc(Nc2ccc([N+](=O)[O-])c3nonc23)c1` showed a solubility (kinetic) of 5.2 µg/mL (≈ 18.2 µM).

With `O=C(COC(=O)CNC(=O)c1ccccc1)NC(=O)NC1CCCCC1`, the solubility (kinetic) is more than 54.2 µg/mL.

In the case of `Cc1cccc2[nH]c(CN(C)Cc3nc(CC4CC4)no3)nc12`, the solubility (kinetic) is 45.9 µg/mL (≈ 147 µM).

For `O=C1CCC(C(=O)OCC(=O)Nc2cc(Cl)ccc2F)=NN1`, the solubility (kinetic) was more than 49.2 µg/mL.

`Nc1cc2c(cc1[N+](=O)[O-])OCCOCCOCCO2` showed a kinetic solubility of more than 42.6 µg/mL.

In the case of `O=C(CCC1CCCCC1)Nc1ccc(C(=O)c2ccncc2)cc1`, the solubility (kinetic) is less than 0.4 µg/mL.

On to `CC(C)NC(=O)CCCn1cc([N+](=O)[O-])cn1`, for which the kinetic solubility is more than 36 µg/mL.

The compound `COc1ccc2sc(NCc3ccccc3)nc2c1` came in with a kinetic solubility of 2 µg/mL (≈ 7.4 µM).

For `Cc1cc(C)cc(NC(=O)C(=S)NCc2ccccc2)c1`, the solubility (kinetic) is less than 0.3 µg/mL.

The compound `COc1ccc(C(=O)OCC(=O)NCc2ccc3c(c2)OCO3)cc1S(=O)(=O)N1CCOCC1` came in with a kinetic solubility of 12.2 µg/mL (≈ 24.8 µM).

Compound `Cc1ccccc1NC(=O)OCc1ccccc1` yielded a solubility (kinetic) of 23.7 µg/mL (≈ 98.2 µM).

Compound `COc1ccc(C(CNC(=O)c2ccc3c(c2)CCC3)N(C)C)cc1` (stereo not given) displayed a solubility (kinetic) of more than 50.8 µg/mL.

`N#C/C(=C\C=C\c1ccccc1)C(=O)N1CCCC1`: the kinetic solubility came out at 7.3 µg/mL (≈ 28.9 µM).

The compound `Cc1ccc(N=C2NC(=O)C(CO)(CO)S2)cc1` had a kinetic solubility of 27.1 µg/mL (≈ 102 µM).

In turn, `COc1ccc(N2CCN(C(=O)Cn3cncn3)CC2)cc1` displayed a kinetic solubility of more than 45.2 µg/mL.

As to `CC(=O)C(C(C)=O)C(c1ccccc1)c1nc2ccccc2[nH]c1=O` (stereo not given), the kinetic solubility was 0.9 µg/mL (≈ 2.69 µM).

`CS(=O)(=O)c1ccc([C@@H](O)[C@@H](CO)NC(=O)C(Cl)Cl)cc1` showed a solubility (kinetic) of more than 53.4 µg/mL.

As for `O=C(O)C1C2CCC(CC2)C1C(=O)N1CCN(Cc2ccc(F)cc2)CC1` (stereo not given), the kinetic solubility was more than 56.2 µg/mL.

`CS(=O)(=O)N(CC(=O)NC1CCCCC1)c1cccc(F)c1`: the solubility (kinetic) turned out to be 48.1 µg/mL (≈ 146 µM).

For the compound `CC(c1ccccc1)C1CC(=O)N(c2cc(Cl)ccn2)C1=O` (stereo not given), the solubility (kinetic) was more than 47.2 µg/mL.

`Cn1cccc1CNC(=S)Nc1ccccc1Cl` had a kinetic solubility of 36.4 µg/mL (≈ 130 µM).

In the case of `CN(Cc1ccccc1F)C(=O)c1ccccc1Sc1ccccc1C#N`, the solubility (kinetic) was 17 µg/mL (≈ 45.2 µM).

For `CCN(CC)CCCNC(=O)Cn1ccc2ccccc2c1=O`, the kinetic solubility is more than 47.3 µg/mL.

Turning to `Cc1ccc(N(CN2C(=O)C3C4CCC(C4)C3C2=O)C(=O)c2ccco2)cc1` (stereo not given), the solubility (kinetic) stood at 53.9 µg/mL (≈ 142 µM).

For `CC(=O)Nc1cccc(NC(=O)Cc2cccs2)c1`, the kinetic solubility was 28.4 µg/mL (≈ 104 µM).

The record behind these values is PubChem BioAssay AID1996.
